This data set in a line: Pharmacokinetics and plasma concentration of Example 101 in Lewis rats after oral administration (CIA study). The following applies: Day 21, Group 4 (CIA + GSK620). The data set is classed as in vivo, Lewis rat.

Several values for one entry are separate records, joined by “and”; a condition that tells them apart may be missing. Identical values can stand only once.

The values that follow come from patent publication US20250263370A1 (Tay Therapeutics Limited, priority 2022, published 2025).

For the compound `CNC(=O)c1cc(C(=O)NC2CC2)cn(Cc2ccccc2)c1=O` [GSK620], the “Plasma concentration” value (per animal) was 1590 ng/mL and 4170 ng/mL and 3070 ng/mL and 2740 ng/mL and 1760 ng/mL and 3230 ng/mL and 3450 ng/mL and 2540 ng/mL. For the same compound, the concentration at 21 day (Lewis, rat, plasma, oral, read-out: Mean Plasma Concentration) was determined as 2820 ng/mL.
